Experimental data reported in patent US20250295639A1, “METHODS FOR TREATING HEART DISEASES” (Cytokinetics, Incorporated, priority 2024, published 2025).

How the values were obtained:
[1] = test system: patients with symptomatic oHCM; test: SEQUOIA-HCM: analysis by baseline Valsalva LVOT-G severity (severe <100 mmHg vs very severe ≥100 mmHg); type: in vivo, human; conditions: for Change in KCCQ CSS, Mean (SD) Change from Baseline / LVOT-G - Rest, Mean (SD) Change from Baseline / LVOT-G - Valsalva, Mean (SD) Change from Baseline / Peak VO2, Mean (SD) Change from Baseline / Change in KCCQ CSS, Adjusted diff / LVOT-G - Rest, Adjusted diff / LVOT-G - Valsalva, Adjusted diff / NT-proBNP, Adjusted diff / Peak VO2, Adjusted diff / Proportional LVOT-G - Rest, Adjusted diff / Proportional LVOT-G - Valsalva, Adjusted diff / hs-cTpI, Adjusted diff: Baseline to Week 24; for Change in KCCQ CSS, Adjusted diff / LVOT-G - Rest, Adjusted diff / LVOT-G - Valsalva, Adjusted diff / NT-proBNP, Adjusted diff / Peak VO2, Adjusted diff / Proportional LVOT-G - Rest, Adjusted diff / Proportional LVOT-G - Valsalva, Adjusted diff / hs-cTpI, Adjusted diff / NYHA FC improvement, Rate difference / Proportion of patients with rest LVOT-G <30 mmHg & Valsalva LVOT-G <50 mmHg, Adjusted diff: vs placebo; for NYHA FC improvement, % of patients / Proportion of patients with rest LVOT-G <30 mmHg & Valsalva LVOT-G <50 mmHg / NYHA FC improvement, Rate difference / Proportion of patients with rest LVOT-G <30 mmHg & Valsalva LVOT-G <50 mmHg, Adjusted diff: Week 24; for proportional reduction from baseline in Valsalva (provoked) LVOT-G / proportional reduction from baseline in resting LVOT-G: week 24
From the text: Patients with Hypertrophic Obstructive Cardiomyopathy and Very Severe Left Ventricular Outflow Tract Obstruction. Patients enrolled in SEQUOIA-HCM (the study of Example 8), the pivotal phase 3 controlled trial of aficamten in adults with symptomatic oHCM, were grouped according to baseline Valsalva LVOT-G (severe obstruction [<100 mmHg] versus very severe obstruction [≥100 mmHg]). The prespecified primary endpoint was the proportional change from baseline to Week 24 in rest and Valsalva LVOT-G in severe versus very severe obstruction groups. Secondary endpoints included change in symptoms, cardiac biomarkers, and exercise capacity by group (Table 14). Of the 282 patients randomized, 209 patients had severe obstruction, and 73 had very severe obstruction. Compared to baseline, there was a profound reduction in resting and provoked obstruction in both groups. By week 24, the proportional reductions (95% CI) from baseline in the severely obstructed cohort were 69% (74 to 63) and 64% (69 to 56), and 73% (81 to 63) and 71% (79 to 61) in the very severe obstruction cohort, but there was no between-group difference (p>0.05). […] The post-titration doses by group were similar, with 81% and 88% in each cohort receiving the 15 mg and 20 mg dose strengths (p=0.21). There were no instances of per protocol down-titration in the very severe obstruction group, and treatment emergent adverse events (TEAE's) were balanced between groups (any TEAE 77 [71%] in severe versus 28 [85%] in very severe obstruction; p=0.60).

[2] = test system: patients with symptomatic oHCM; test: SEQUOIA-HCM: cardiac biomarkers NT-proBNP and hs-cTnI; type: in vivo, human
From the text: A further exploratory objective of this trial was to evaluate the effect of aficamten on biomarker levels, as determined by changes from baseline values in NT-pro-BNP, hs-cardiac-TnI and other biomarkers through Week 24. Cardiac biomarkers. Aficamten treatment led to an immediate and significant reduction in both NT-proBNP and hs-cTnI, with substantial lowering of both biomarkers by week 2. […] Biomarker lowering persisted to week 24 when the relative reduction from baseline was-80% (95% CI-83%, −77%, p<0.001) in NT-proBNP and −43% (−49%, […], p<0.001) in hs-cTnI. […] Serum levels of NT-proBNP decreased from baseline to week 24 from 735 (604, 894) ng/L to 143 (120, 171) ng/L in patients receiving aficamten and remained unchanged from 710 (587, 859) ng/L to 717 (596, 863) ng/L in those receiving placebo, while hs-troponin decreased from 17.1 (14.1, 20.8) ng/L to 9.5 (8.0, 11.3) ng/L with aficamten and remained unchanged from 16.6 (13.3, 20.7) to 16.5 (13.7, 19.9) ng/L in placebo (P<0.001 for both comparisons compared to placebo). […] In contrast hs-cTnI reduction reflected 3% (−18%, 30%) of aficamten's effect on pVO2.

[3] = test system: patients with symptomatic oHCM; design: species or system human; conditions: in vivo
Procedure: Patients enrolled in this trial were required to have an LVEF≥60% prior to randomization, as confirmed by the central echocardiography laboratory. […] Dose escalation was performed on an individualized basis only if the following criteria were met: both post-Valsalva LVOT-G≥30 mmHg and biplane LVEF≥55%. Importantly, in contrast to CY 6021, the lower limit of LVEF for dose escalations was increased from 50% to 55% to provide a safety margin from the threshold of LVEF (<50%) that would trigger dose reduction. If the LVEF was <50% at any time, the dose of aficamten was down-titrated, and if the LVEF is <40% at any time, aficamten was temporarily interrupted.
To evaluate the safety and tolerability profile of aficamten in patients with symptomatic oHCM, the following were recorded: (1) incidence of reported major adverse cardiac events (cardiovascular [CV] death, cardiac arrest, non-fatal stroke, non-fatal myocardial infarction, CV hospitalization); (2) incidence of new onset persistent atrial fibrillation; (3) incidence of appropriate implantable cardiac defibrillator (ICD) discharges and aborted sudden cardiac death; (4) incidence of left ventricular ejection fraction (LVEF)<50%; and (5) incidence of treatment emergent adverse events.

[4] = Baseline Valsalva LVOT-G <100 mmHg
[5] = Baseline Valsalva LVOT-G <100 mmHg, N = 109
[6] = Baseline Valsalva LVOT-G ≥100mmHg
[7] = Baseline Valsalva LVOT-G ≥100mmHg, N=33
[8] = severe obstruction (baseline Valsalva LVOT-G <100 mmHg)
[9] = very severe obstruction (≥100 mmHg)

SMILES: CCc1nc(-c2ccc3c(c2)CC[C@H]3NC(=O)c2cnn(C)c2)no1 [aficamten, (R)—N-(5-(5-ethyl-1,2,4-oxadiazol-3-yl)-2,3-dihydro-1H-inden-1-yl)-1-methyl-1H-pyrazole-4-carboxamide]
- Change in KCCQ CSS, Mean (SD) Change from Baseline [1, 4]: 12
- LVOT-G - Rest, Mean (SD) Change from Baseline [1, 4]: −28 ± 25 mmHg
- LVOT-G - Valsalva, Mean (SD) Change from Baseline [1, 4]: −38 ± 31 mmHg
- Peak VO2, Mean (SD) Change from Baseline [1, 4]: 1.8 ± 3.2 mL/min/kg
- Change in KCCQ CSS, Adjusted diff [1, 4]: +8
- LVOT-G - Rest, Adjusted diff [1, 4]: −35 mmHg
- LVOT-G - Valsalva, Adjusted diff [1, 4]: −43 mmHg
- NT-proBNP, Adjusted diff [1, 4]: −79%
- Peak VO2, Adjusted diff [1, 4]: +1.6 mL/kg/min
- Proportional LVOT-G - Rest, Adjusted diff [1, 4]: −69%
- Proportional LVOT-G - Valsalva, Adjusted diff [1, 4]: −64%
- hs-cTpI, Adjusted diff [1, 4]: −45%
- NYHA FC improvement, % of patients [1, 5]: (62%)
- Proportion of patients with rest LVOT-G <30 mmHg & Valsalva LVOT-G <50 mmHg [1, 5]: (73%)
- NYHA FC improvement, Rate difference [1, 4]: +38.2%
- Proportion of patients with rest LVOT-G <30 mmHg & Valsalva LVOT-G <50 mmHg, Adjusted diff [1, 4]: +63.7%
- Change in KCCQ CSS, Mean (SD) Change from Baseline [1, 6]: 9
- LVOT-G - Rest, Mean (SD) Change from Baseline [1, 6]: −60 ± 29 mmHg
- LVOT-G - Valsalva, Mean (SD) Change from Baseline [1, 6]: −82 ± 38 mmHg
- Peak VO2, Mean (SD) Change from Baseline [1, 6]: 1.6 ± 2.8 mL/min/kg
- Change in KCCQ CSS, Adjusted diff [1, 6]: +4
- LVOT-G - Rest, Adjusted diff [1, 6]: −52 mmHg
- LVOT-G - Valsalva, Adjusted diff [1, 6]: −68 mmHg
- NT-proBNP, Adjusted diff [1, 6]: −85%
- Peak VO2, Adjusted diff [1, 6]: +1.8 mL/kg/min
- Proportional LVOT-G - Rest, Adjusted diff [1, 6]: −73%
- Proportional LVOT-G - Valsalva, Adjusted diff [1, 6]: −71%
- hs-cTpI, Adjusted diff [1, 6]: −34%
- NYHA FC improvement, % of patients [1, 7]: (49%)
- Proportion of patients with rest LVOT-G <30 mmHg & Valsalva LVOT-G <50 mmHg [1, 7]: (52%)
- NYHA FC improvement, Rate difference [1, 6]: +22.4%
- Proportion of patients with rest LVOT-G <30 mmHg & Valsalva LVOT-G <50 mmHg, Adjusted diff [1, 6]: +51.2%
- proportional reduction from baseline in Valsalva (provoked) LVOT-G [1, 8]: 64%
- proportional reduction from baseline in resting LVOT-G [1, 8]: 69%
- proportional reduction from baseline in Valsalva (provoked) LVOT-G [1, 9]: 71%
- proportional reduction from baseline in resting LVOT-G [1, 9]: 73%
- hs-cTnI relative reduction from baseline ([2]; Week 24): −43%
- patients with 50% relative reduction in hs-troponin ([2]; aficamten group, week 24): 31%
- patients with ≥50% reduction in NT-proBNP relative to baseline ([2]; aficamten group, week 24): 84%
- hs-troponin level ([2]; aficamten, week 24, baseline 17.1 (14.1, 20.8)): 9.5 (8.0, 11.3) ng/L
- serum level of NT-proBNP ([2]; aficamten, week 24, baseline 735 (604, 894)): 143 (120, 171) ng/L
- NT-proBNP and hs-cTnI concentrations after cessation of aficamten ([2]; after the treatment period): returning to baseline values
- NT-proBNP reduction ([2]; week 8): 79%
- hs-cTnI reduction ([2]; week 8): 41%
- instances of per protocol down-titration [3]: no instances
